These are literature values, as cited in article PMC12141164, “Phase-1 study of vamotinib (PF-114), a 3rd generation BCR::ABL1 tyrosine kinase-inhibitor, in chronic myeloid leukaemia” (Annals of Hematology, 2025).

The subject of one series is rats. More on the design: method as in PMID 25394714. The conditions noted are these: pre-clinical toxicology; cited from earlier work.
Another series deals with PDGFRa. As to conditions: kinase inhibition profiles; cited from earlier work.

Consider `Cc1ccc(C(=O)Nc2ccc(CN3CCN(C)CC3)c(C(F)(F)F)c2)cc1C#Cc1nnc2ccccn12` [vamotinib], for which the Rash result with rats is recorded as “Rash was seen”. The “inhibition of PDGFRa” value in the series with PDGFRa was “potently inhibited”.
